We go through 15 molecules from BindingDB's records for doi:10.1021/jm00084a013 (Upjohn Laboratories, 1992).

In experiment [1] the target is 5-hydroxytryptamine receptor 1A (Bos taurus). Description: Ability to displace [3H]-DPAT from 5-hydroxytryptamine 1A receptor in homogenates of bovine hippocampus.
A short description of experiment [2]: Compound was evaluated for its ability to displace [3H]DPAT from 5-HT1A receptor in homogenates of bovine hippocampus.

The structures appear in SMILES notation.

`CCCN(CCC)C1Cc2cccc3c2N(C1)C(=O)CC3` (stereo not given): the inhibition constant (Ki) (in general, the dissociation constant of the complex between target and ligand, obtained from inhibition or displacement) in experiment [1] is 2.4 nM. In turn, `CCCN(CCC)C1Cc2cccc3c2N(C1)C(=O)C3` (stereo not given) yielded a Ki in experiment [1] of 108 nM.

In experiment [1], `CCCN(CCC)C1Cc2cccc3ncn(c23)C1` (stereo not given) displayed a Ki of 827 nM. `CCCN(CCC)C1Cc2cccc3[nH]c(=O)c(=O)n(c23)C1` (stereo not given): the Ki in experiment [1] was more than 1000 nM.

As to `CCCN(CCC)C1Cc2cccc3c2N(CC3)C1` (stereo not given), the Ki in experiment [1] is 13 nM. Consider `CCCN(CCC)C1Cc2cccc3c2n(c(=O)n3C)C1` (stereo not given), for which the Ki in experiment [2] stood at 124 nM. As for `CCCN(CCC)C1Cc2cccc3c2N(C1)C(=O)CN3` (stereo not given), the affinity in experiment [1] corresponds to a Ki of 49 nM.

As for `CCCN(CCC)C1Cc2cccc3c2N(CCC3)C1` (stereo not given), the affinity in experiment [1] corresponds to a Ki of 105 nM. The same measure, in the same setting: as for `O=c1[nH]c2cccc3c2n1CC(NCC1CC1)C3` (stereo not given), the figure is 84 nM; as for `CCCN(CCC)C1Cc2cccc3nc(SC)n(c23)C1` (stereo not given), 173 nM; as for `CCCN(CCC)C1Cc2cccc3oc(=O)n(c23)C1` (stereo not given), more than 1000 nM. The same measure, in the same setting: next, `CCCN(CCC)C1Cc2cccc3ccn(c23)C1` (stereo not given): 252 nM.

`CCCCNC1Cc2cccc3[nH]c(=O)n(c23)C1` (stereo not given) displayed a Ki in experiment [2] of more than 1000 nM. With `CCCN(CCC)C1Cc2cccc3nc(C)n(c23)C1` (stereo not given), affinity in experiment [1] was put at a Ki of 4490 nM. The same measure, in the same setting: as for `O=c1[nH]c2cccc3c2n1CC(N(CC1CC1)CC1CC1)C3` (stereo not given), the figure is 95 nM.
